This is an account of results in patent US9296693B2, “Acyl piperidine inhibitors of soluble epoxide hydrolase” (The Regents of the University of California, priority 2010, dated 2016).

Where “and” joins values, the source holds several entries; their conditions need not be identical. Equal values may be shown once.

For one data set, the target named is murine sEH (Mus musculus (Mouse), UniProt P34914). The data set can be described thus: fluorescent based IC50 assay (CMNPC substrate), recombinant murine sEH. The format is biochemical. The conditions noted are these: homogenous recombinant murine sEH 1 nM, CMNPC 5 μM, pH 7.0, 30° C., average of three replicates.
A short description of data set [1]: Log P determination by HPLC method (OECD guideline 117). Type of data set: physicochemical. The conditions noted are these: octanol/water; read-out: log P (±0.5).
Method: Log P and purity analyses were performed using a Hewlett Packard 1100 HPLC equipped with a diode array detector. A Phenomenex Luna 150 mm×4.6 mm, 5 μm, C-18 column was used for all HPLC analyses.
The target in a further data set is Human sEH (Homo sapiens (Human), UniProt P34913). The data set can be described thus: fluorescent based IC50 assay (CMNPC substrate), recombinant human sEH.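 Note: enzyme preincubated with inhibitor for 5 min before adding substrate, in 25 mM Bis-Tris/HCl buffer supplemented with 0.1 mg/mL BSA.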 The note with it: read-out: IC50 (nM) Human; homogenous recombinant human sEH 1 nM, CMNPC 5 μM, pH 7.0, 30° C., average of three replicates.
Data set [2] can be described thus: log P by shake flask method (OECD guideline 107). The format is physicochemical.
The nature of data set [3]: Pharmacokinetic screening of selected haloalkyl-phenyl ureas, blood profiles. The conditions noted are these: whole blood. Type of data set: in vivo.

Sequence of murine sEH (P34914 whole entry): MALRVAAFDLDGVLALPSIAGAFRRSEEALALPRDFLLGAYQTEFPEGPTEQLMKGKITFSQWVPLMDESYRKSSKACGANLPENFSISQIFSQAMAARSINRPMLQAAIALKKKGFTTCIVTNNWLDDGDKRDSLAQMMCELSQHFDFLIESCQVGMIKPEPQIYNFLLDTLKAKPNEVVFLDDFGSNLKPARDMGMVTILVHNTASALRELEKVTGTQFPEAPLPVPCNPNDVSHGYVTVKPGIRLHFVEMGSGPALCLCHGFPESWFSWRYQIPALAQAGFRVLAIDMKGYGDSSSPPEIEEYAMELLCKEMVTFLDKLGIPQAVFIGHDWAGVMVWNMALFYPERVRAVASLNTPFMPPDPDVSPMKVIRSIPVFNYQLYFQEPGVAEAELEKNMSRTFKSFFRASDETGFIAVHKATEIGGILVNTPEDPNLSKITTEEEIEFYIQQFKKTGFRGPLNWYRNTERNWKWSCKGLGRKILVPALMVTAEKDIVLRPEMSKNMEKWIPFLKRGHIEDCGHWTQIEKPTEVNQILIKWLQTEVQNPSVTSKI
Sequence of Human sEH (P34913 whole entry): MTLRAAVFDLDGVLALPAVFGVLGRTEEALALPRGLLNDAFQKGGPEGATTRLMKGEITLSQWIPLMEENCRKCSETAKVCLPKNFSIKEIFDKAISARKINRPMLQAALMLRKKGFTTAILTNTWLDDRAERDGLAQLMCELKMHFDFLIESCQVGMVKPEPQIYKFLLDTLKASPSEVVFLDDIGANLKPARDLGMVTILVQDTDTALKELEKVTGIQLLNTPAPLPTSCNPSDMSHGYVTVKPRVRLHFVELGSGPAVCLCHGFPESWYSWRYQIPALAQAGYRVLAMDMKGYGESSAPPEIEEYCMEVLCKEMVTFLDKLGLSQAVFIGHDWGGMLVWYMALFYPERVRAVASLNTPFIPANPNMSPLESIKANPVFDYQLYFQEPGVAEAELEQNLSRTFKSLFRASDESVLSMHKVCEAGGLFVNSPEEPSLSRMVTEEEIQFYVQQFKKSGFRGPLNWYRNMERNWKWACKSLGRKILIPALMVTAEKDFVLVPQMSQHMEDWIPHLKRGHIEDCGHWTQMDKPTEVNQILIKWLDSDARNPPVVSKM

For the compound `CCC(=O)N1CCC(NC(=O)Nc2cccnc2)CC1` [Compound 9, 1-(1-Propionylpiperidin-4-yl)-3-(pyridin-3-yl)urea], the 50% inhibitory concentration (IC50) at murine sEH was > 5000 nM and 12000 nM; on Human sEH it was 3800 nM. For the same compound, the chromatographic logP in data set [1] is less than 0.

For the compound `CCC(=O)N1CCC(NC(=O)Nc2ccc(F)cc2)CC1` [Compound 24, 1-(4-Fluorophenyl)-3-(1-propionylpiperidin-4-yl)urea], the values for the IC50 at murine sEH and at Human sEH were 110 nM and 79 nM, respectively. Also, in data set [2], the “log P” value worked out at 1.9.

In the case of `O=C(Nc1ccc(OC(F)(F)F)cc1)NC1CCN(C(=O)c2cc(O)c(O)c(O)c2)CC1` [Compound 54, 1-(4-(Trifluoromethoxy)phenyl)-3-(1-(3,4,5-trihydroxybenzoyl)piperidin-4-yl)urea], the IC50 at murine sEH was 2.7 nM; at Human sEH, 0.5 nM. Also, in data set [2], the “log P” value was determined as 2.3.

As for `O=C(Nc1ccc(OC(F)(F)F)cc1)NC1CCN(S(=O)(=O)c2ccccc2)CC1` [Compound 57, 1-(1-(Phenylsulfonyl)piperidin-4-yl)-3-(4-(trifluoromethoxy)phenyl)urea], the results for the concentration for half-maximal inhibition (IC50) at murine sEH and at Human sEH were 0.4 nM and 1.8 nM, respectively.

With `O=C(Nc1ccc(C(F)(F)F)cc1)NC1CCN(C(=O)C2CC2)CC1` [Compound 61, 1-(1-cyclopropanecarbonylpiperidin-4-yl)-3-(4-(trifluoromethyl)phenyl)urea], in data set [3], the area under the curve (AUC) was found to be 170 µM·h, the peak level (Cmax) was 10.2 µM, the Tmax was 4 h and the half-life is 10.6 h.

Take `CCC(C)C(=O)N1CCC(NC(=O)Nc2ccc(C(F)(F)F)cc2)CC1` (stereo not drawn) [Compound 64, 1-(1-(2-methylbutyryl)piperidin-4-yl)-3-(4-(trifluoromethyl)phenyl)urea]: in data set [3], the AUC turned out to be 3.9 µM·h, the peak concentration (Cmax) was 4 µM, the Tmax was 4 h and the half-life is 2.5 h.

On to `CCCCS(=O)(=O)N1CCC(NC(=O)Nc2ccc(C(F)(F)F)cc2)CC1` [Compound 69, 1-(1-(butylsulfonyl)piperidin-4-yl)-3-(4-(trifluoromethyl)phenyl)urea], for which, in data set [3], the AUC came to 15.5 µM·h, the highest concentration (Cmax) amounted to 1.7 µM, the time to peak (Tmax) was 1 h and the half-life was 4.5 h.

Consider `O=C(Nc1ccc(C(F)(F)F)cc1)NC1CCN(S(=O)(=O)C2CC2)CC1` [Compound 70, 1-(1-(cyclopropylsulfonyl)piperidin-4-yl)-3-(4-(trifluoromethyl)phenyl)urea], for which, in data set [3], the AUC was determined as 167 µM·h, the maximum concentration (Cmax) was 10.9 µM, the Tmax stood at 4 h and the half-life is 11.9 h.

Broadly, the IC50 is the point on the concentration scale where inhibition reaches its midpoint. A word on the log P: it is the decadic logarithm of the partition coefficient of the neutral form, usually between octanol and water. A lower log P goes with a more hydrophilic compound. The AUC is the area under the concentration-time curve, a measure of exposure. Broadly, the Cmax is the highest concentration seen after dosing. Usually Tmax stands for the time from dosing to the highest level. As usually defined, the half-life is how long it takes for the measured level to halve.
